Earlier results in US11195597B2, “Method and device for calculating acid dissociation constant, and program” (FUJITSU LIMITED, priority 2015, dated 2021).

Details: known measured value; dissociation point circled in the structure

SMILES | pKa
CC1CCCCC1.N [Number 17] | 10.64
CCNCc1ccccc1 [Number 15] | 9.68
O=C(O)C1CCCN1 (stereo not drawn) [Number 67] | 10.6
CCC(C)C(C)C(=O)O.N (stereo not drawn) [Number 44] | 9.68
c1ccc2c(c1)CCCN2 [Number 132, tetrahydroquinoline] | 5
CCc1ccccc1.N [Number 14] | 9.34
N#Cc1ccccn1 [Number 93, 2-cyanopyridine] | −0.3
CC(C)C(N)C(=O)O (stereo not drawn) [Number 84] | 9.62
CC(C)C(=O)O.N [Number 5] | 9.69
CC(Cc1cnc[nH]1)C(=O)O.N (stereo not drawn) [Number 43] | 9.17
NCCCCc1ccccc1 [Number 61] | 10.4
CC(C)(C)CN [Number 58] | 10.21
NC(Cc1c[nH]c2ccccc12)C(=O)O (stereo not drawn) [Number 82] | 9.39
CC(CC(N)=O)C(=O)O.N (stereo not drawn) [Number 12] | 8.8
c1ccc2cnccc2c1 [Number 120, isoquinoline] | 5.14
CCCN(C)C [Number 33] | 9.99
CC(CCCCN)C(=O)O.N (stereo not drawn) [Number 47] | 8.95
C[C@@H](O)[C@H](N)C(=O)O [Number 75, threonine] | 9.1
CCC(C)NC(C)CC (stereo not drawn) [Number 23, di-sec-butylamine] | 11.01

SMILES | pKa
COc1ccncc1 [Number 101, 4-methoxypyridine] | 6.6
CC(CCCNC(N)N)C(=O)O.N (stereo not drawn) [Number 10] | 9.04
O=[N+]([O-])c1ccccn1 [Number 94, 2-nitropyridine] | −2.6
NC(CO)C(=O)O (stereo not drawn) [Number 72] | 9.15
CN(C)c1ccccc1 [Number 109] | 5.2
Nc1ccc2ccccc2c1 [Number 92, 2-naphthalamine] | 4.16
c1ccc(Nc2ccccc2)cc1 [Number 108] | 0.78
NCCCCC(N)C(=O)O (stereo not drawn) [Number 48] | 10.53
c1ccc2[nH]cnc2c1 [Number 112] | 16.4
Cc1cccnc1 [Number 97] | 5.7
CNCc1ccccc1 [Number 16] | 9.58
CNC1CCCCC1 [Number 18] | 10.49
NCCCc1ccccc1 [Number 63] | 10.2
O=[N+]([O-])c1ccncc1 [Number 104, 4-nitropyridine] | 1.6
O=[N+]([O-])c1cccnc1 [Number 99, 3-nitropyridine] | 0.6
O=C(c1ccccc1)N1CCNCC1 [Number 52] | 7.78
NCCCCCc1ccccc1 [Number 60, phenylamylamine] | 10.49
C=CCN(C)CC=C [Number 25] | 8.79
CC(CCCNC(N)N)C(=O)O (stereo not drawn) [Number 11] | 12.48

SMILES | pKa
COc1ccccn1 [Number 90, 2-methoxypyridine] | 3.3
CCCNCCC [Number 22] | 11
CCCCN(CCCC)CCCC [Number 76, tri-n-butylamine] | 10.89
C=CCNCC=C [Number 24] | 9.29
c1ncc2[nH]cnc2n1 [Number 124] | 8.9
CC(CCC(=O)O)C(=O)O.N (stereo not drawn) [Number 41] | 9.67
N[C@@H](Cc1ccccc1)C(=O)O [Number 59, phenylalanine] | 9.13
c1ccc(-c2cccnc2)cc1 [Number 100, 3-phenylpyridine] | 4.8
CC(C)CN(C)C [Number 35] | 10.52
c1ncc2[nH]cnc2n1 [Number 123] | 2.5
CC(CC(=O)O)C(=O)O.N (stereo not drawn) [Number 13] | 9.82
c1ccc(-c2ccncc2)cc1 [Number 105, 4-phenylpyridine] | 5.5
COc1cccnc1 [Number 96, 3-methoxypyridine] | 4.9
CCCCN(C)C [Number 32] | 10.02
c1ccc2cc3ncccc3cc2c1 [Number 113] | 5.05
CC(C)CNCC(C)C [Number 28, di-isobutylamine] | 10.5
N#Cc1cccnc1 [Number 98, 3-cyanopyridine] | 1.4
N#Cc1ccncc1 [Number 103, 4-cyanopyridine] | 1.9
c1ccc2c(c1)[nH]c1ccccc12 [Number 114] | 19.9
